Data from paper PMC9762789, “Chromone-based monoamine oxidase B inhibitor with potential iron-chelating activity for the treatment of Alzheimer’s disease” (Journal of Enzyme Inhibition and Medicinal Chemistry, 2022).
Like-named read-outs stand apart in the source and are kept apart here.

Legend:
[1] = pKa determination by automated spectrophotometric titration; type: physicochemical; conditions: 0.1 M KCl solution
[2] = target: T1, MAO-B (Homo sapiens, UniProt P27338); test: hMAO-B inhibition assay; type: biochemical; conditions: for inhibition at 0.1 µM: hMAO-B, 100 nM, read-out: Inhibitory rate (%, 100 nM)
T1 construct: purchased Sigma-Aldrich
T1 sequence (P27338 1-520): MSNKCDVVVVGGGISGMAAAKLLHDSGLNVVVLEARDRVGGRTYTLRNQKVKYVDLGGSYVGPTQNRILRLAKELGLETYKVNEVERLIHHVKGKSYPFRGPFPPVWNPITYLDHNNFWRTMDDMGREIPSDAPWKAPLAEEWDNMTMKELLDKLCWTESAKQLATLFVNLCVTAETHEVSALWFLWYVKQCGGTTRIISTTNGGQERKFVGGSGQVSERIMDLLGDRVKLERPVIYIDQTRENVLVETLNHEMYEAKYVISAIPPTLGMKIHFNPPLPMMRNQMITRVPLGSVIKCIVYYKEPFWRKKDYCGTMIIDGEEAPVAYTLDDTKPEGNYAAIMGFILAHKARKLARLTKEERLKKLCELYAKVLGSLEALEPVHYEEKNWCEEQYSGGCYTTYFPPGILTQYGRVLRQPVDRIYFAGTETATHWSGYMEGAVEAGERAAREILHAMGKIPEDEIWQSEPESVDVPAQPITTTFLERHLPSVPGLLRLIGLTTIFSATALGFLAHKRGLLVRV
Method: (§1) The reagents and enzymes (Human MAO-B and Human MAO-A) applied in this experiment were purchased from Sigma-Aldrich. According to the manuals, all components (substrate solution and enzyme solution) are diluted and placed aside for use. The detailed process has been mentioned in our early work[34].

[3] = iron (III) affinity constants and pFe3+ by spectrophotometric titration; type: physicochemical; conditions: for Log β1 / Log β2 / Log β3: DMSO: KCl (0.1 M) = 1:1.5 (v/v); for pFe^3+: calculated from Log β values obtained in DMSO: KCl (0.1 M) = 1:1.5 (v/v)
[4] = target: T2, Human MAO-A (Homo sapiens, UniProt P21397); test: hMAO-A inhibition assay; type: biochemical; conditions: for inhibition at 10 µM: read-out: hMAO-A inhibitory rate at 10 μM, 10 μM (highest concentration tested)
T2 construct: purchased Sigma-Aldrich
T2 sequence (P21397 1-527): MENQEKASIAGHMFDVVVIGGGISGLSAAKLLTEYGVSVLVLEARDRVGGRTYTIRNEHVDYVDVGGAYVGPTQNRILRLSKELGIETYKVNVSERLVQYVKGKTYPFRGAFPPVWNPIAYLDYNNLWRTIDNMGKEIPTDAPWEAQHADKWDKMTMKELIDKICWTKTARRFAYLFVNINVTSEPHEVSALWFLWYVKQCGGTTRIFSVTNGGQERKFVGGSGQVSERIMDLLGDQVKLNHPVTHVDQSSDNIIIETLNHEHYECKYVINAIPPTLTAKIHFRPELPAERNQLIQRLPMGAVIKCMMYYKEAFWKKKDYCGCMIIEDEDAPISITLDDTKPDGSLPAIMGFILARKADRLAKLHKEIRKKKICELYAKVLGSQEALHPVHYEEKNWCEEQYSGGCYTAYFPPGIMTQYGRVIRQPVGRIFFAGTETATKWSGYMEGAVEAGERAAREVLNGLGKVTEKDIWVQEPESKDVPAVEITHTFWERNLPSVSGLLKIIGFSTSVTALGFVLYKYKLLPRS
Method: Further, the inhibitory activity of compounds against hMAO-A isoform was tested and calculated as a selectivity index [Selectivity index (SI): IC50 (hMAO-A)/IC50 (hMAO-B)].
as §1

| Compound | melting point [°C] | pKa ([1]; read-out: pKa1) | pKa ([1]; read-out: pKa2) | IC50 [2] [nM] | SI: hMAO-B selectivity index = IC50 (hMAO-A)/IC50 (hMAO-B) [2] | inhibition at 0.1 µM [2] [%] | Log β1 [3] | Log β2 [3] | Log β3 [3] | pFe^3+ [3] | inhibition at 10 µM [4] [%] | IC50 [4] [nM] |
| --- | --- | --- | --- | --- | --- | --- | --- | --- | --- | --- | --- | --- |
| Cc1c(O)c(=O)ccn1CCNC(=O)c1coc2ccccc2c1=O [Compound 8a, N-(2–(3-hydroxy-2-methyl-4-oxopyridin-1(4H)-yl)ethyl)-4-oxo-4H-chromene-3-carboxamide] | 268 to 270 | 3.29 | 9.67 | 112 ± 1.3 | >89 | 42.2 ± 3.7 | 13.67 | 25.22 | 34.95 | 18.68 | < 20 | – |
| Cc1c(O)c(=O)ccn1CCNC(=O)c1coc2cc(OCc3ccc(F)cc3)ccc2c1=O [Compound 15e, 7-((4-Fluorobenzyl)oxy)-N-(2–(3-hydroxy-2-methyl-4-oxopyridin-1(4H)-yl)ethyl)-4-oxo-4H-chromene-3-carboxamide] | 246 to 248 | 2.89 | 9.57 | 106.4 ± 0.2 | >94 | 42.4 ± 2.1 | 13.24 | 24.65 | 34.50 | 18.52 | < 20 | – |
| Cc1ccc2occ(CNCCn3ccc(=O)c(O)c3C)c(=O)c2c1 [Compound 17c, 3-Hydroxy-2-methyl-1–(2-(((6-methyl-4-oxo-4H-chromen-3-yl)methyl)amino)ethyl)pyridin-4(1H)-one] | 259 to 261 | 2.75 | 9.76 | 86.3 ± 0.7 | >116 | 44.23 ± 0.1 | 13.31 | 25.00 | 34.07 | 17.55 | < 20 | – |
| Cc1c(O)c(=O)ccn1CCNCc1coc2cc(OCc3ccccc3)ccc2c1=O [Compound 17f, 1–(2-(((7-(Benzyloxy)-4-oxo-4H-chromen-3-yl)methyl)amino)ethyl)-3-hydroxy-2-methylpyridin-4(1H)-one] | 169 to 171 | 2.73 | 9.69 | 76.4 ± 3.8 | 10.4 | 49 ± 0.6 | 13.20 | 24.70 | 33.77 | 17.45 | – | 795 ± 0.7 |
| Cc1c(O)c(=O)ccn1CCNCc1coc2cc(OCc3ccc(F)cc3)ccc2c1=O [Compound 17j, 1–(2-(((7-((4-Fluorobenzyl)oxy)-4-oxo-4H-chromen-3-yl)methyl)amino)ethyl)-3-hydroxy-2-methylpyridin-4(1H)-one] | 218 to 220 | 2.76 | 9.53 | 102 ± 3.2 | >99 | 46 ± 0.7 | 13.13 | 24.78 | 33.73 | 17.89 | < 20 | – |
| Cc1c(O)c(=O)ccn1CCNCc1coc2cc(OCc3cccc(Cl)c3)ccc2c1=O [Compound 17k, 1–(2-(((7-((3-Chlorobenzyl)oxy)-4-oxo-4H-chromen-3-yl)methyl)amino)ethyl)-3-hydroxy-2-methylpyridin-4(1H)-one] | 226 to 228 | 2.53 | 9.43 | 114 ± 3.8 | >88 | 43.1 ± 2 | 12.99 | 24.76 | 33.88 | 18.31 | < 20 | – |

Second part, the molecule after the results:

| melting point [°C] | pKa ([1]; read-out: pKa1) | pKa ([1]; read-out: pKa2) | IC50 [2] [nM] | SI: hMAO-B selectivity index = IC50 (hMAO-A)/IC50 (hMAO-B) [2] | inhibition at 0.1 µM [2] [%] | Log β1 [3] | Log β2 [3] | Log β3 [3] | pFe^3+ [3] | inhibition at 10 µM [4] [%] | IC50 [4] [nM] | Compound |
| --- | --- | --- | --- | --- | --- | --- | --- | --- | --- | --- | --- | --- |
| 265 to 267 | 3.26 | 9.69 | 112 ± 5.7 | >89 | 42.1 ± 0.8 | 13.86 | 25.07 | 33.48 | 17.19 | < 20 | – | Cc1ccc2occ(C(=O)NCCn3ccc(=O)c(O)c3C)c(=O)c2c1 [Compound 8c, N-(2–(3-hydroxy-2-methyl-4-oxopyridin-1(4H)-yl)ethyl)-6-methyl-4-oxo-4H-chromene-3-carboxamide] |
| 248 to 250 | 3.2 | 9.6 | 107 ± 5.6 | >93 | 41.9 ± 1.4 | 13.82 | 25.31 | 34.23 | 18.18 | < 20 | – | COc1ccc2c(=O)c(C(=O)NCCn3ccc(=O)c(O)c3C)coc2c1 [Compound 8d, N-(2–(3-hydroxy-2-methyl-4-oxopyridin-1(4H)-yl)ethyl)-7-methoxy-4-oxo-4H-chromene-3-carboxamide] |
| 230 to 232 | 3.35 | 9.52 | 129.5 ± 0.8 | – | 41.2 ± 2.8 | 13.79 | 25.03 | 33.91 | 18.09 | < 20 | – | Cc1c(O)c(=O)ccn1CCNC(=O)c1coc2cc(OCc3cccc(Cl)c3)ccc2c1=O [Compound 15f, 7-((3-Chlorobenzyl)oxy)-N-(2–(3-hydroxy-2-methyl-4-oxopyridin-1(4H)-yl)ethyl)-4-oxo-4H-chromene-3-carboxamide] |
| 251 to 253 | 2.95 | 9.82 | 82.78 ± 0.7 | >120 | 49.5 ± 0.3 | 13.58 | 25.38 | 35.34 | 18.61 | < 20 | – | Cc1ccc2c(=O)c(CNCCn3ccc(=O)c(O)c3C)coc2c1 [Compound 17b, 3-Hydroxy-2-methyl-1–(2-(((7-methyl-4-oxo-4H-chromen-3-yl)methyl)amino)ethyl)pyridin-4(1H)-one] |
| 267 to 269 | 2.76 | 9.83 | 88.7 ± 5.3 | >112 | 46.4 ± 1.3 | 13.32 | 25.08 | 34.89 | 18.12 | < 20 | – | COc1ccc2occ(CNCCn3ccc(=O)c(O)c3C)c(=O)c2c1 [Compound 17e, 3-Hydroxy-1–(2-(((6-methoxy-4-oxo-4H-chromen-3-yl)methyl)amino)ethyl)-2-methylpyridin-4(1H)-one] |
| 211 to 213 | 2.68 | 9.62 | 78 ± 4.3 | 21.4 | 55.8 ± 2.7 | 13.02 | 24.75 | 33.78 | 17.66 | – | 1666 ± 5.7 | Cc1cccc(COc2ccc3c(=O)c(CNCCn4ccc(=O)c(O)c4C)coc3c2)c1 [Compound 17g, 3-Hydroxy-2-methyl-1–(2-(((7-((3-methylbenzyl)oxy)-4-oxo-4H-chromen-3-yl)methyl)amino)ethyl)pyridin-4(1H)-one] |
| 215 to 217 | 2.58 | 9.68 | – | – | 39.48 ± 0.3 | 12.93 | 24.99 | 34.10 | 17.81 | – | – | Cc1c(O)c(=O)ccn1CCNCc1coc2cc(OCc3cccc(F)c3)ccc2c1=O [Compound 17i, 1–(2-(((7-((3-Fluorobenzyl)oxy)-4-oxo-4H-chromen-3-yl)methyl)amino)ethyl)-3-hydroxy-2-methylpyridin-4(1H)-one] |
